Results published in patent US10570168B2, “2′ and/or 5′ amino-acid ester phosphoramidate 3′-deoxy adenosine derivatives as anti- cancer compounds” (NuCana plc, priority 2014, dated 2020).

Key:
Format in all cases: cell-based
[1] = test system: MCF-7; test: CellTiterGlo viability assay, initial screening; conditions: Homo sapiens, MCF7, 72 h, read-out: IC50 (relative IC50)
Description: (§1) In vitro viability assays were performed to assess the effects of compounds on cell viability in 7 selected cell lines over 72 hr using the CellTiterGlo (CTG, Promega-G7573) assay. The tests were performed in duplicates with treatment of compounds at 9 points, 3.16 folds titration in 96 well plates over ˜72 hr. The compound starting concentrations were […]. Cell viability assay using CellTiterGlo in 96-well plate were performed. The compound treatment was 72 hrs, under standard growth conditions, and in duplicate. Compounds were dissolved to 40 mM with thawed […]. Compounds were serially diluted at 3.16 fold in thawed DMSO, and warmed to 37° C. before being dissolved in media (2 μl+200 μl). After compounds were dissolved in media (media was also warmed to 37° C.). Media containing compounds were warmed to 37° C. in incubator and then compounds in media were added to cell plates (50 μl+50 μl), in duplicates. The compounds final concentrations were from […] to 19.9 nM. All compound solubilities were checked and recorded again, then the plates were transferred to CO2 tissue culture incubator immediately and incubated for 3 days. DMSO final concentration is 0.5%.

[2] = test system: K562; test: CellTiterGlo viability assay, initial screening; conditions: Homo sapiens, K562, 72 h, read-out: IC50 (relative IC50)
Description: as §1

[3] = test system: HepG2; test: CellTiterGlo viability assay, initial screening; conditions: Homo sapiens, HepG2, 72 h, read-out: IC50 (relative IC50)
Description: as §1

[4] = test system: HL-60; test: CellTiterGlo viability assay, initial screening; conditions: Homo sapiens, HL-60, 72 h, read-out: IC50 (relative IC50)
Description: as §1

[5] = test system: KG-1; test: CellTiterGlo viability assay, initial screening; conditions: Homo sapiens, KG-1, 72 h, read-out: IC50 (relative IC50)
Description: as §1

[6] = test system: MOLT-4; test: CellTiterGlo viability assay, initial screening; conditions: Homo sapiens, MOLT-4, 72 h, read-out: IC50 (relative IC50)
Description: as §1

[7] = test system: MCF7; test: Solid tumour and haematological malignancy assay (CellTiterGlo); conditions: Homo sapiens, MCF7, 72 h; for IC50: read-out: IC50 (absolute IC50)
Outline: (§2)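 72 hr compound treatment, duplicates, 0.5% DMSO final; readout CellTiterGlo.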

[8] = test system: MiaPaCa-2; test: as above; conditions: Homo sapiens, MIA PaCa-2, 72 h; for IC50: read-out: IC50 (absolute IC50)
Outline: as §2

[9] = test system: HT29; test: as above; conditions: Homo sapiens, HT-29, 72 h; for IC50: read-out: IC50 (absolute IC50)
Outline: as §2

[10] = test system: CCRFCEM; test: as above; conditions: Homo sapiens, CCRF-CEM, 72 h; for IC50: read-out: IC50 (absolute IC50); for Emax: read-out: MI %
Outline: as §2

[11] = test system: K562; test: as above; conditions: Homo sapiens, K562, 72 h; for IC50: read-out: IC50 (absolute IC50)
Outline: as §2

[12] = test system: HEL92.1.7; test: as above; conditions: Homo sapiens, HEL 92.1.7, 72 h; for IC50: read-out: IC50 (absolute IC50)
Outline: as §2

[13] = test system: HepG2; test: as above; conditions: Homo sapiens, HepG2, 72 h; for IC50: read-out: IC50 (absolute IC50)
Outline: as §2

[14] = test system: HL-60; test: as above; conditions: Homo sapiens, HL-60, 72 h; for IC50: read-out: IC50 (absolute IC50)
Outline: as §2

[15] = test system: KG-1; test: as above; conditions: Homo sapiens, KG-1, 72 h; for IC50: read-out: IC50 (absolute IC50)
Outline: as §2

[16] = test system: MV4-11; test: as above; conditions: Homo sapiens, MV4-11, 72 h; for IC50: read-out: IC50 (absolute IC50); for Emax: read-out: MI %
Outline: (§3)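 Cells were treated in duplicate with a 9-point, 3.16-fold dilution series for about 72 h under standard growth conditions. Final concentrations ran from […] to 19.9 nM, with 0.5% DMSO. Viability was read by CellTiter-Glo luminescence.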

[17] = test system: SW620; test: as above; conditions: Homo sapiens, SW-620, 72 h; for IC50: read-out: IC50 (absolute IC50)
Outline: as §3

[18] = test system: BxPC-3; test: as above; conditions: Homo sapiens, BXPC-3, 72 h, read-out: IC50 (absolute IC50)
Outline: as §3

[19] = test system: THP-1; test: as above; conditions: Homo sapiens, THP-1, 72 h; for IC50: read-out: IC50 (absolute IC50)
Outline: as §3

[20] = test system: MOLT-4; test: as above; conditions: Homo sapiens, MOLT-4, 72 h; for IC50: read-out: IC50 (absolute IC50)
Outline: as §3

Row | SMILES | IC50 [1] | IC50 [2] | IC50 [3] | IC50 [4] | IC50 [5] | IC50 [6] | IC50 [7] | IC50 [8] | IC50 [9] | IC50 [10] | Emax [10] | IC50 [11] | IC50 [12] | IC50 [13] | IC50 [14] | IC50 [15] | IC50 [16] | Emax [16] | IC50 [17] | IC50 [18] | also measured
1 | C[C@H](NP(=O)(OC[C@@H]1C[C@@H](O)[C@H](n2cnc3c(N)ncnc32)O1)Oc1cccc2ccccc12)C(=O)OCc1ccccc1 (stereo partly drawn) [B, (2S)-benzyl 2-(((((2S,4R,5R)-5-(6-amino-9H-purin-9-yl)-4-hydroxytetrahydrofuran-2-yl)methoxy)(naphthalen-1-yloxy)phosphoryl)amino)propanoate] | 0.1 to 5 µM | 0.1 to 5 µM | 5 to 15 µM | 5 to 15 µM | 5 to 15 µM | 0.1 to 5 µM | 0.1 to 5 µM | 0.1 to 5 µM | 5 to 15 µM | 0.1 to 5 µM | 100% | 0.1 to 5 µM | 0.1 to 5 µM | 5 to 15 µM | 0.1 to 5 µM | 5 to 15 µM | 0.1 to 5 µM | 99% | 5 to 15 µM | 5 to 15 µM | IC50 [19]: 15 to 100 µM; IC50 [20]: 0.1 to 5 µM
2 | Nc1ncnc2c1ncn2[C@@H]1O[C@H](COP(=O)(NCC(=O)OCc2ccccc2)Oc2ccccc2)C[C@H]1O (stereo partly drawn) [C, Benzyl 2-(((((2S,4R,5R)-5-(6-amino-9H-purin-9-yl)-4-hydroxytetrahydrofuran-2-yl)methoxy)(phenoxy)phosphoryl)amino)acetate] | 5 to 15 µM | 5 to 15 µM | 15 to 100 µM | 15 to 100 µM | > 100 µM | 0.1 to 5 µM | 0.1 to 5 µM | 5 to 15 µM | 15 to 100 µM | 5 to 15 µM | 100% | 5 to 15 µM | 0.1 to 5 µM | 15 to 100 µM | 5 to 15 µM | 15 to 100 µM | 5 to 15 µM | 106% | 15 to 100 µM | 15 to 100 µM | Emax ([7]; read-out: MI %): 102%; Emax ([8]; read-out: MI %): 106%; Emax ([9]; read-out: MI %): 99%; Emax ([11]; read-out: MI %): 100%; Emax ([12]; read-out: MI %): 99%; Emax ([13]; read-out: MI %): 99%; Emax ([14]; read-out: MI %): 100%; Emax ([15]; read-out: MI %): 102%; Emax ([17]; read-out: MI %): 100%; IC50 [19]: 15 to 100 µM; Emax ([19]; read-out: MI %): 99%; IC50 [20]: 0.1 to 5 µM; Emax ([20]; read-out: MI %): 92%
